Consider five compounds from ChEMBL document CHEMBL1151396, “Synthesis of naphthoquinoles as potential antitumor agents related to jacaranone” (1982).

In brackets after ≈: the same amount, converted by molar mass.

One assay concerns P388. In words: In vivo cytotoxicity against mouse P388 cells at 2 mg/kg relative to control. It counts as functional.
Settings: not given
The compound `COC(=O)CC1(O)C=CC(=O)C=C1` [JACARANONE] yielded a T/C of 165%.

For the next assay, the system named is KB. In words: Cytotoxicity against human KB cells. Type of assay: functional. The settings on record: read-out: ED50 (the source's name).
Regarding `COC(=O)CC1(O)C=C(OC)C(=O)c2ccccc21` (stereo unspecified), the EC50 is 25 µg/mL (≈ 95.3 µM). Still for that read-out and setting: the result for `COC(=O)CC1(O)C=CC(=O)c2ccccc21` (stereo unspecified) reads 20 µg/mL (≈ 86.1 µM); that for `COC(=O)CC1(O)C=CC(=O)C=C1` [JACARANONE], 2.1 µg/mL (≈ 11.5 µM); that for `COC(=O)CC1(O)C=C(C)C(=O)c2ccccc21` (stereo unspecified), 100 µg/mL (≈ 406 µM). On the same count and under the same terms, the result for `CCOC(=O)CC1(O)C=CC(=O)C=C1` reads 3.3 µg/mL (≈ 16.8 µM).

Usually T/C stands for the result in the treated group divided by that in the control group, in per cent.
